Measured values reported in article PMC8550792, “Evolution of kinase polypharmacology across HSP90 drug discovery” (Cell Chemical Biology, 2021).

Tests used:
Experiment in all cases: biochemical
Type in all cases: biochemical
382 unique human kinases [1] = target: T1, 382 unique human kinases (Homo sapiens, UniProt P07949, L790F); conditions: RET (L790F), 10 uM; for remaining activity at 10 µM: read-out: % Enzyme Activity (relative to DMSO controls)
T1 construct: purchased Reaction Biology (HotSpot contract assay)

382 unique human kinases [2] = target: T2, 382 unique human kinases (Homo sapiens, UniProt P22607, K650Q); conditions: kinase FGFR3 (K650Q), compound 10 uM; for remaining activity at 10 µM: read-out: % Enzyme Activity (relative to DMSO controls)
T2 construct: purchased Reaction Biology (HotSpot contract assay)

382 unique human kinases [3] = target: T3, 382 unique human kinases (Homo sapiens, UniProt P29322); conditions: kinase EPHA8, compound 10 uM; for remaining activity at 10 µM: read-out: % Enzyme Activity (relative to DMSO controls)
T3 construct: purchased Reaction Biology (HotSpot contract assay)
T3 sequence (P29322 28-1005): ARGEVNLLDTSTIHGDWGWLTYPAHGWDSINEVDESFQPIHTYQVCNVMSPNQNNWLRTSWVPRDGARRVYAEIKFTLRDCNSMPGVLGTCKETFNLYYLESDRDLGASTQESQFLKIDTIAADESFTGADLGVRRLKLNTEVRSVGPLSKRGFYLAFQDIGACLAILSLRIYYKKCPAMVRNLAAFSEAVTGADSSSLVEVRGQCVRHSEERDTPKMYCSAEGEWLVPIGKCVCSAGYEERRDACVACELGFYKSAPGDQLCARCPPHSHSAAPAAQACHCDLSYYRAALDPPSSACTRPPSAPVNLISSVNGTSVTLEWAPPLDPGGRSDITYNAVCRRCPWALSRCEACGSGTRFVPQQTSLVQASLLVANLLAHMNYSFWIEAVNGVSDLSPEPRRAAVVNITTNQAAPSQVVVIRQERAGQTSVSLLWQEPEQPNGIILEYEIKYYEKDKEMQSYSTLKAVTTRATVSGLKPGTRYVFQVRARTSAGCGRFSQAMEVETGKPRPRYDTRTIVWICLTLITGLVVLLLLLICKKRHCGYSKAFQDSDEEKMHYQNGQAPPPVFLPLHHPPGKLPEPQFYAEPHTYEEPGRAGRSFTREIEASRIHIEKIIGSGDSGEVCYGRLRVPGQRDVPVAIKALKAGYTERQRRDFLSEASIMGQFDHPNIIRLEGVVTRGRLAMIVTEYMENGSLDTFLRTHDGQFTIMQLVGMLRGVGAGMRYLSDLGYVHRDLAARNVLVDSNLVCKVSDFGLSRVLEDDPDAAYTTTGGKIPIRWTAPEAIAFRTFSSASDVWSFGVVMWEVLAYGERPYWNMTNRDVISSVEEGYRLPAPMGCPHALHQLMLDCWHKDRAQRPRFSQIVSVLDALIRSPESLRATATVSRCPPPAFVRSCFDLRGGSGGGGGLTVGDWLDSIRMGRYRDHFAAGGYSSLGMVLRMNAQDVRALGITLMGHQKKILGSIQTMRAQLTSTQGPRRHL

382 unique human kinases [4] = target: T4, 382 unique human kinases (Homo sapiens, UniProt Q04771, R206H); conditions: ALK2 (R206H), compound at 10 uM, duplicate values; for remaining activity at 10 µM: read-out: % Enzyme Activity (relative to DMSO controls)
T4 construct: purchased Reaction Biology (HotSpot contract assay)
T4 sequence (Q04771 21-509 R206H): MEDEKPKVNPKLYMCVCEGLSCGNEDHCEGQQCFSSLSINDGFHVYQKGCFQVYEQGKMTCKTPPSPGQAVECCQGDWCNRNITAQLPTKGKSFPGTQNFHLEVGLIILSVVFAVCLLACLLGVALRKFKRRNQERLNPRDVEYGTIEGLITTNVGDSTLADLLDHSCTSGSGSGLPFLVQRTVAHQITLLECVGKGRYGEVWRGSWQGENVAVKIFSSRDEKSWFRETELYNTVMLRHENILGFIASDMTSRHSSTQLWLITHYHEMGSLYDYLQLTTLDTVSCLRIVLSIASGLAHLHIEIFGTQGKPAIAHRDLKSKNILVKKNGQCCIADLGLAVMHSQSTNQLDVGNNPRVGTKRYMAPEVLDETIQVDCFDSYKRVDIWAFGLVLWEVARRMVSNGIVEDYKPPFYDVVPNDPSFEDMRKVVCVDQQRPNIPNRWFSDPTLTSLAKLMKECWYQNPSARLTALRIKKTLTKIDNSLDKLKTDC

382 unique human kinases [5] = target: T5, 382 unique human kinases (Homo sapiens, UniProt Q9Y2H1); conditions: STK38L/NDR2, compound at 10 uM, duplicate values; for remaining activity at 10 µM: read-out: % Enzyme Activity (relative to DMSO controls)
T5 construct: purchased Reaction Biology (HotSpot contract assay)

382 unique human kinases [6] = target: T6, 382 unique human kinases (Homo sapiens, UniProt P00519, H396P); conditions: ABL1 (H396P), [ATP] 15 µM, compound 10 uM; for remaining activity at 10 µM: read-out: % Enzyme Activity (relative to DMSO controls)
T6 construct: purchased Reaction Biology (HotSpot contract assay)

382 unique human kinases [7] = target: T7, 382 unique human kinases (Homo sapiens, UniProt Q6VAB6, R676S); conditions: KSR2 (R676S), 10 uM; for remaining activity at 10 µM: read-out: % Enzyme Activity (relative to DMSO controls)
T7 construct: purchased Reaction Biology (HotSpot contract assay)
T7 sequence (Q6VAB6 1-950 R676S): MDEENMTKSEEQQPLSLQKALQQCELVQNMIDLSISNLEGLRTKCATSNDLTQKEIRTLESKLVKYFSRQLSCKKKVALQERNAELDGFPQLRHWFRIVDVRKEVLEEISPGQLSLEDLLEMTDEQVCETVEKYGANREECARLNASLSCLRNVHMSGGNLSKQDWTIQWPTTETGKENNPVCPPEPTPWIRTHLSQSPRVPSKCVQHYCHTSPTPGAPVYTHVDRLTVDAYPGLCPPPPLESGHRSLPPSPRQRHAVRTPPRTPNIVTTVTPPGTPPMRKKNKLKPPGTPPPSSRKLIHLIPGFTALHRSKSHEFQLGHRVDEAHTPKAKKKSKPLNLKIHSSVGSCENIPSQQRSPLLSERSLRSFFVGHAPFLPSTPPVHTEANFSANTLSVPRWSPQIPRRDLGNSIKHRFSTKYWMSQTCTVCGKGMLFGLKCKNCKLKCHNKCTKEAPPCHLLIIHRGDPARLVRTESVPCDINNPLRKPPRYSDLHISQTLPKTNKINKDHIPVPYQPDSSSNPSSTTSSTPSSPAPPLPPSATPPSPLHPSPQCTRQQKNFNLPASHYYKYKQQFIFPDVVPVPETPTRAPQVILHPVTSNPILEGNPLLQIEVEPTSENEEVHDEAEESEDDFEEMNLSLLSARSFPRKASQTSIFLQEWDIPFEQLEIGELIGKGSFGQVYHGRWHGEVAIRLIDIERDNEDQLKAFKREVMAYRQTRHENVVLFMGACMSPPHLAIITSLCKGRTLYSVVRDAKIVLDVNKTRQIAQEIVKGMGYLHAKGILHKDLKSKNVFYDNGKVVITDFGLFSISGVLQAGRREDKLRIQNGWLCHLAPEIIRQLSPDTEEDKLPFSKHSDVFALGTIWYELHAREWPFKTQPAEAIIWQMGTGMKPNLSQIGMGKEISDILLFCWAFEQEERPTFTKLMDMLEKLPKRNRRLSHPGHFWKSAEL

382 unique human kinases [8] = target: T8, 382 unique human kinases (Homo sapiens, UniProt Q9H4B4); conditions: PLK3, [ATP] 100 µM, compound 10 uM; for remaining activity at 10 µM: read-out: % Enzyme Activity (relative to DMSO controls)
T8 construct: purchased Reaction Biology (HotSpot contract assay)
T8 sequence (Q9H4B4 whole entry): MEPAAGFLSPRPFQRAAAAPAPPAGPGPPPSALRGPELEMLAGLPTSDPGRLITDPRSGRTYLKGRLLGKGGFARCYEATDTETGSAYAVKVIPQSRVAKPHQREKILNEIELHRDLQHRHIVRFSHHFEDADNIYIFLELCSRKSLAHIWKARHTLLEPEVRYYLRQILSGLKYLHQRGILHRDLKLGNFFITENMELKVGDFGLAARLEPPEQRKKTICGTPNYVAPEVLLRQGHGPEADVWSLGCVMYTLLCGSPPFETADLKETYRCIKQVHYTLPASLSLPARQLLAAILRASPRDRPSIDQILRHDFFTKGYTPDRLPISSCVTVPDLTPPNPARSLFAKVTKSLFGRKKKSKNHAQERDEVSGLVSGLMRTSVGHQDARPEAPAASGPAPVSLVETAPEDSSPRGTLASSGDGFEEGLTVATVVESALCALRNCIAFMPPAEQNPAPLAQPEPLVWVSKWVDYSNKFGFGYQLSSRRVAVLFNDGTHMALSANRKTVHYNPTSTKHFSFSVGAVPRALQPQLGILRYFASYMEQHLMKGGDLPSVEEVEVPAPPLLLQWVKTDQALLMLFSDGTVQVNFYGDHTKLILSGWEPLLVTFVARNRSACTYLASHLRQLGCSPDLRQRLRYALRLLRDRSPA

T1 sequence (P07949 29-1114 L790F): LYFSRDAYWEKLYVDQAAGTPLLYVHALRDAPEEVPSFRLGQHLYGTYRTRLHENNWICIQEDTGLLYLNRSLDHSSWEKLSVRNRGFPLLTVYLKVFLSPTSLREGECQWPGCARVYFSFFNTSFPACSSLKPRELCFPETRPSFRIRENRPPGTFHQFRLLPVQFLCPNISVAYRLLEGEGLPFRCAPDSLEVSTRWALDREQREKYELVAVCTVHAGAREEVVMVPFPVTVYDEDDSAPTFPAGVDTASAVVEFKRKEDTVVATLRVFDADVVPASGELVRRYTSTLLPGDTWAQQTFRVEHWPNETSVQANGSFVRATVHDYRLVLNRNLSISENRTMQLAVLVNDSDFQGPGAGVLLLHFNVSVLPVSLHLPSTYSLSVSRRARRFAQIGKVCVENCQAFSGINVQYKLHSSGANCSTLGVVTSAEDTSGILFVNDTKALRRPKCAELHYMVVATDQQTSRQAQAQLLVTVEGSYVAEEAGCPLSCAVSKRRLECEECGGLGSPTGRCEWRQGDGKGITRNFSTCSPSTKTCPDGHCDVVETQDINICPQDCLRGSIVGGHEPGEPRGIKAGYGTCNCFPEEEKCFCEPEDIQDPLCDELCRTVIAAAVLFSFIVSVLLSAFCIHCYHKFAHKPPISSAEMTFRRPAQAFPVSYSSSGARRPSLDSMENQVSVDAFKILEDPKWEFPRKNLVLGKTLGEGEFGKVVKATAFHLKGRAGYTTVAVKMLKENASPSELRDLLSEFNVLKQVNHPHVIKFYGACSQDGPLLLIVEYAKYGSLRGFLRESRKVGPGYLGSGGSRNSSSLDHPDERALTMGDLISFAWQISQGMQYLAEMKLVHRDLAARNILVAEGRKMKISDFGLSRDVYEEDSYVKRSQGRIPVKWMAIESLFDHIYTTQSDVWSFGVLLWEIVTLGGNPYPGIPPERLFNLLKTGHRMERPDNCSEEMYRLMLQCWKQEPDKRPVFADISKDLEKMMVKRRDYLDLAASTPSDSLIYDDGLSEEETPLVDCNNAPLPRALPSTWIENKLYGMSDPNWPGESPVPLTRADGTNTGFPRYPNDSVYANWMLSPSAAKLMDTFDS
T5 sequence (Q9Y2H1 whole entry): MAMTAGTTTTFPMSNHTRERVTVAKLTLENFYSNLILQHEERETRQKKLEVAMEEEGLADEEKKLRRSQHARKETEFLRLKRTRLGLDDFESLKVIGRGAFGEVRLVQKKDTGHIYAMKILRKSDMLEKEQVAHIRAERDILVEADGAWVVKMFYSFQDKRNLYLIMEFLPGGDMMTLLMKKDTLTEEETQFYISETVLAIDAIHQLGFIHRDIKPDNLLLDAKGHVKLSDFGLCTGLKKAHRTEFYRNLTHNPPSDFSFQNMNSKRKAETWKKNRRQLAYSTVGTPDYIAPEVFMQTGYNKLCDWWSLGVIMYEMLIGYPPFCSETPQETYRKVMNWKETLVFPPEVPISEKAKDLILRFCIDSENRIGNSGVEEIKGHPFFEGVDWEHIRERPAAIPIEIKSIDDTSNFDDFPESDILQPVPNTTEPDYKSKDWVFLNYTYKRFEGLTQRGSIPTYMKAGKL
T2 sequence (P22607 23-806 K650Q): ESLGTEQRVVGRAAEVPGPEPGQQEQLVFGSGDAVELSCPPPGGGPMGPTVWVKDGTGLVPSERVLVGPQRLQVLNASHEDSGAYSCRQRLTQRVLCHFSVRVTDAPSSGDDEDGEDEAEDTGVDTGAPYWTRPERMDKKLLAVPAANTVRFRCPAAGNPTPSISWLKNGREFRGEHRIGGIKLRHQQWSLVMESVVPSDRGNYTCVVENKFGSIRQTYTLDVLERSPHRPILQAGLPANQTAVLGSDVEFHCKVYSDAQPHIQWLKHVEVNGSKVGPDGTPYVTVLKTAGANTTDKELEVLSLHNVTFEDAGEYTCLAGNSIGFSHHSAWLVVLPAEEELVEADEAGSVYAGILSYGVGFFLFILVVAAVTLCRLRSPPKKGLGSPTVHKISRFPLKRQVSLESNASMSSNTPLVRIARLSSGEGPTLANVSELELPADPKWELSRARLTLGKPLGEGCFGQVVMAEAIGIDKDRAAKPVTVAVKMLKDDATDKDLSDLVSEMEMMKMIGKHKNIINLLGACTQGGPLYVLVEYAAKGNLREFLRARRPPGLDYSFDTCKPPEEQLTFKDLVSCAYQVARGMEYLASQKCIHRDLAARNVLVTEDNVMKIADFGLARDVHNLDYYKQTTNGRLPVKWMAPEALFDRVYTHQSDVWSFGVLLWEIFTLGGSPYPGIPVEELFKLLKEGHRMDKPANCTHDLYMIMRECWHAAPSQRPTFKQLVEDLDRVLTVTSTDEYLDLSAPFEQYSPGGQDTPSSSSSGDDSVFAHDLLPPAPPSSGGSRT

SMILES | remaining activity at 10 µM (382 unique human kinases [1]) [%] | remaining activity at 10 µM (382 unique human kinases [2]) [%] | remaining activity at 10 µM (382 unique human kinases [3]) [%] | remaining activity at 10 µM (382 unique human kinases [4]) [%] | remaining activity at 10 µM (382 unique human kinases [5]) [%] | % Enzyme Activity (relative to DMSO controls) (382 unique human kinases [6]) [%] | remaining activity at 10 µM (382 unique human kinases [6]) [%] | % Enzyme Activity (relative to DMSO controls) (382 unique human kinases [7]) [%] | remaining activity at 10 µM (382 unique human kinases [7]) [%] | % Enzyme Activity (relative to DMSO controls) (382 unique human kinases [8]) [%] | remaining activity at 10 µM (382 unique human kinases [8]) [%] | % Enzyme Activity (relative to DMSO controls) (382 unique human kinases [1]) [%] | % Enzyme Activity (relative to DMSO controls) (382 unique human kinases [2]) [%] | % Enzyme Activity (relative to DMSO controls) (382 unique human kinases [3]) [%] | % Enzyme Activity (relative to DMSO controls) (382 unique human kinases [4]) [%] | % Enzyme Activity (relative to DMSO controls) (382 unique human kinases [5]) [%]
CC(C)c1cc(-c2n[nH]c(=O)n2-c2ccc3c(ccn3C)c2)c(O)cc1O [Ganetespib (STA9090)] | 68.1 | 84.5 | 95.2 | 142 | 105 | – | – | – | – | – | – | – | – | – | – | –
CCNC(=O)c1noc(-c2cc(C(C)C)c(O)cc2O)c1-c1ccc(CN2CCOCC2)cc1 [Luminespib] | – | – | – | – | – | 6.11 | 6.74 | 96.29 | 96.8 | 99.40 | 99.4 | – | – | – | – | –
CCNC(=O)c1noc(-c2cc(C(C)C)c(O)cc2O)c1-c1ccc(CN2CCOCC2)cc1 [Luminespib (AUY-922)] | 91.5 | 107 | 94.1 | 114 | 108 | – | – | – | – | – | – | 91.09 | 105.48 | 92.42 | 113.96 | 105.09
CC(C)c1cc(-c2n[nH]c(=O)n2-c2ccc3c(ccn3C)c2)c(O)cc1O [Ganetespib] | – | – | – | – | – | – | 2.43 | – | 93 | – | 39.6 | – | – | – | – | –
